Values joined by “and” are separate entries in the source; they are usually repeats but may differ in a detail not shown here. Identical values can stand only once.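 Protocol summary: plate cells (96-well), add compound at 5 concentrations, incubate 48 h, interpolate endpoints linearly. GI50 marks 50% less growth. Definition used: TGI = concentration required for complete inhibition of growth.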
Tests used:
Experiment in all cases: growth of human tumour cells (NCI), 48 h
EKVX NSCLC = tested on: EKVX NSCLC
MALME-3M melanoma = tested on: MALME-3M melanoma
HCT-116 colon = tested on: HCT-116 colon
HL-60(TB) leukemia = tested on: HL-60(TB) leukemia
HCT-15 colon = tested on: HCT-15 colon
MDA-MB-231 breast = tested on: MDA-MB-231 breast
MOLT-4 leukemia = tested on: MOLT-4 leukemia
U251 CNS = tested on: U251 CNS
NCI/ADR-RES ovarian = tested on: NCI/ADR-RES ovarian
T-47D breast = tested on: T-47D breast

SMILES	GI50 (EKVX NSCLC)	TGI (EKVX NSCLC)	GI50 (MALME-3M melanoma)	TGI (MALME-3M melanoma)	GI50 (HCT-116 colon)	TGI (HCT-116 colon)	TGI (HL-60(TB) leukemia)	GI50 (HCT-15 colon)	TGI (HCT-15 colon)	TGI (MDA-MB-231 breast)	TGI (MOLT-4 leukemia)	TGI (U251 CNS)	TGI (NCI/ADR-RES ovarian)	TGI (T-47D breast)
NC(CS)C(=O)NCCNc1ccc(NCCNC(=O)C(N)CS)c2c1C(=O)c1c(O)ccc(O)c1C2=O (centres undefined)	0.0538 µM	1.05 µM and 0.274 µM	0.0818 µM	1.27 µM and 1.24 µM	0.0176 µM	0.261 µM and 0.154 µM	0.0414 µM	0.0384 µM	0.864 µM and 0.584 µM	1.62 µM	0.62 µM	0.136 µM and 0.117 µM	1.03 µM	1.45 µM
CON(C(=O)OC(C)(C)C)c1ccccc1		> 100 µM		> 100 µM		> 100 µM	> 100 µM		> 100 µM	> 100 µM	> 100 µM	> 100 µM	> 100 µM	> 100 µM
COc1ccccc1[C@@H]1CCC2CC[C@@H](c3ccccc3OC)[N+]21Cc1ccccc1 (some centres undefined)		1.86 µM		15.3 µM		13.1 µM	4.88 µM		15.2 µM	9.83 µM	7.43 µM	11.2 µM	32.3 µM	10.8 µM
N#CC(C#N)C1CN2CCC1CC2 (centres undefined)		> 100 µM		> 100 µM		> 100 µM	> 100 µM		> 100 µM	> 100 µM	> 100 µM	> 100 µM	> 100 µM	> 100 µM
O=C1C=CC(=O)[C@H]2C3C=CC(C4C3C3(Cl)C(Cl)=C(Cl)[C@]4(Cl)C3(Cl)Cl)[C@@H]12 (some centres undefined)		15 µM		22.6 µM		12.9 µM	4.63 µM		16.6 µM	16.7 µM	36 µM	13.3 µM	17.4 µM	23.2 µM
CCN(CCN(CC)C(=O)NC)C(=O)NC		> 100 µM		> 100 µM		> 100 µM	> 100 µM		> 100 µM	> 100 µM	> 100 µM	> 100 µM	> 100 µM	> 100 µM
CCOP(=O)(OCC)C(C)(CC)/N=C(\N)NC#N (centres undefined)		> 100 µM		> 100 µM		> 100 µM	> 100 µM		> 100 µM	> 100 µM	> 100 µM	> 100 µM	> 100 µM	> 100 µM
CN(C)CCCN=c1c2ccccc2n(C)c2[nH]c(=O)n(C)c(=O)c12		28.9 µM		11 µM		> 41.8 µM	6.47 µM		> 100 µM	28 µM	12.1 µM	15 µM	> 100 µM	> 54.7 µM
O=C1c2c(F)c(F)c(F)c(F)c2SC2=Nc3cccc4cccc(c34)N12		26.5 µM		9.24 µM		11.9 µM	> 20 µM		14.8 µM	11.7 µM	6.01 µM	10.7 µM	10.2 µM	4.9 µM
CC(=O)CC12NC(=O)N(C)N=C1N(C)C(=O)N(C)C2=O (centres undefined)		> 100 µM		26.5 µM		> 100 µM	> 100 µM		> 100 µM	> 100 µM	> 100 µM	> 100 µM	> 100 µM	> 100 µM
COC(=O)C1=C(C)NC2=C(C(=O)c3ccccc32)C1c1cn[nH]c1-c1ccccc1 (centres undefined)		> 100 µM		> 100 µM		> 100 µM	> 100 µM		> 100 µM	> 100 µM	> 100 µM	> 100 µM	> 100 µM	> 100 µM
CCOC(=O)[C@@]12NN=N[C@@H]1[C@H]1CO[C@H](c3ccccc3)N1C2=O		28.8 µM		26.8 µM		32.5 µM	> 100 µM		32.9 µM	30.6 µM	> 100 µM	18.4 µM	75.9 µM	36 µM
COc1cc(/C=C/C2=NN(c3cccc(S(=O)(=O)O)c3)C3(C2)SCC(=O)N3c2nc3ccccc3s2)cc(OC)c1OC (centres undefined)		> 100 µM		> 100 µM		> 100 µM	> 100 µM		> 100 µM	> 100 µM	> 100 µM	> 100 µM	> 100 µM	47.8 µM
NCCN(CCN)/[N+]([O-])=N/O		> 100 µM		> 100 µM		> 100 µM	> 100 µM		> 100 µM	> 100 µM	> 100 µM	> 100 µM	> 100 µM	> 100 µM
CC(=O)N1CCN(CCCCN2c3ccccc3Sc3cc(N=[N+]=[N-])ccc32)CC1		32.7 µM		33 µM		26.7 µM	27.3 µM		28.1 µM	26.7 µM	25.3 µM	27.6 µM	27.4 µM	15.2 µM
O=C(c1cccnc1)N1N=C(c2ccc3c(c2)OCO3)CC1(O)c1cc(F)c(Cl)cc1Cl (centres undefined)		64.5 µM		54.1 µM		31.2 µM	52.2 µM		42.5 µM	40.5 µM	> 100 µM	32.9 µM	50.4 µM	43.2 µM
CCc1n[nH]c(=O)n1N=C(c1ccccc1)c1ccccc1		93.3 µM		> 100 µM		> 100 µM	> 100 µM		> 100 µM	> 100 µM	> 100 µM	> 100 µM	> 100 µM	> 100 µM
Cc1cc2c(cc1-c1cc3c(cc1C)C(C(C)C)=C(O)C(=O)/C3=C\Nc1ccccn1)/C(=C/Nc1ccccn1)C(=O)C(O)=C2C(C)C		> 100 µM		67.6 µM		> 100 µM	99.2 µM		> 100 µM	> 100 µM	> 100 µM	> 100 µM	> 100 µM	> 100 µM
CCOC(=O)[C@H](CO)Nc1c(O)c2c(c(O)c1Cl)C(=O)C=CC2=O		> 10 µM		> 10 µM		> 10 µM	> 10 µM		> 10 µM	> 10 µM	> 10 µM	> 10 µM	> 10 µM	> 10 µM
CCOC(=O)C(NC(=O)c1ccccc1)(Nc1ccc(S(=O)(=O)Nc2ccc(OC)nn2)cc1)C(F)(F)F (centres undefined)		> 100 µM		> 100 µM		> 100 µM	> 100 µM		> 100 µM	> 100 µM	> 100 µM	> 100 µM	> 100 µM	> 100 µM
O=C1CCc2ccccc2O1		> 100 µM		> 100 µM		> 100 µM	> 100 µM		> 100 µM	> 100 µM	> 100 µM	> 100 µM	> 100 µM	> 100 µM
CC1(C)OC2[C@@H](CO[C@@]3([C@H]4OC(C)(C)O[C@@H]4CO)OC(C)(C)O[C@@H]23)O1 (some centres undefined)		> 100 µM		> 100 µM		> 100 µM	> 100 µM		> 100 µM	> 100 µM	> 100 µM	> 100 µM	> 100 µM	> 100 µM
O=C(NCCCc1cn[nH]c(=O)n1)c1cccc2nc3ccccc3nc12		> 100 µM		> 100 µM		> 100 µM	> 100 µM		> 100 µM	> 100 µM	> 100 µM	> 100 µM	> 100 µM	> 100 µM
CC(C)(CO)NC(=O)c1cccs1		> 100 µM		> 100 µM		> 100 µM	> 100 µM		> 100 µM	> 100 µM	> 100 µM	> 100 µM	> 100 µM	> 100 µM
COc1cc(C2c3cc4c(cc3OC(NNc3ccccc3)C2C)OCO4)cc(OC)c1O (centres undefined)		69.9 µM		11 µM		13.5 µM	5.18 µM		11.9 µM	8.53 µM	11.2 µM	16.3 µM	11.1 µM	10.7 µM
Cc1sc2nc3n(c(=O)c2c1C)N=C(c1ccccc1)CS3		> 100 µM		> 100 µM		> 100 µM	> 100 µM		> 100 µM	> 100 µM	> 100 µM	> 100 µM	> 100 µM	> 100 µM
COc1ccc2nc3c([N+](=O)[O-])ccc(NCCCN(C)C)c3c(N)c2c1		3.68 µM		3.1 µM		0.464 µM	5.86 µM		2.62 µM	3.09 µM	1.69 µM	3.02 µM	4.25 µM	3.98 µM
COc1cc2nc3n(c(=O)c2cc1OC)CCCCC3		> 100 µM		> 100 µM		> 100 µM	> 100 µM		> 100 µM	> 100 µM	> 100 µM	> 100 µM	> 100 µM	> 100 µM
CC(=O)OC12OC(C)(C3C(=O)N(c4ccccc4)C(=O)C31)N(c1ccccc1)C2=O (centres undefined)		> 100 µM		> 100 µM		> 100 µM	> 100 µM		> 100 µM	> 100 µM	> 100 µM	> 100 µM	> 100 µM	> 100 µM
O=C1C(=O)N(C23CC4CC(CC(C4)C2)C3)C(=S)N1c1ccccc1		> 100 µM		> 100 µM		> 100 µM	> 100 µM		> 100 µM	> 100 µM	> 100 µM	> 100 µM	> 100 µM	> 100 µM

From PubChem BioAssay (NCI)
